Columns and labels:
HIV-189.6 = assay: Inactivation of HIV-1 89.6 infectivity; assay type: cell-based
SIVmac1A11 = assay: Inactivation of SIVmac1A11 infectivity; assay type: cell-based, SIV
MAGI cells = assay: Trypan blue exclusion cytotoxicity test; details: four concentrations of porphyrin
Description: A standard trypan blue exclusion test (Strober, Trypan blue exclusion test of cell viability, p. A.3.3-A.3.4, in J. E. Coligan and A. M. Kruisbeek (ed.), Current protocols in immunology, Wiley-Greene, New York, N.Y., 1994) was used. Compounds at a concentration of 50 μg/ml in growth medium were added to a 96-well plate with MAGI cells. After 72 hr cells were detached by standard trypsin solution (0.25% trypsin-0.05% EDTA) and diluted 1:10 in growth medium. To test cell viability, 1 part of 0.4% trypan blue and 9 parts of diluted cells were mixed, incubated the mixture about 2 min at room temperature, and applied a drop of the trypan blue/cell mixture to a hemacytometer. Using a binocular microscope, the stained (nonviable) and unstained (viable) cells were then counted. The fraction of viable cells was calculated as the number of unstained cells in the wells treated with compound as a percentage of the number in control wells.
The selective index value was defined as the CC50/EC50 ratio.
A trypan blue exclusion test to determine possible toxicity of the test compounds. Compounds at a concentration of 50 μg/ml in growth medium were added to MAGI cells. […] After 72 hr, a trypan blue assay was used to compare cell viability in cells treated with compounds to untreated cells.

[1] = molecular target: T1, binding of HIV-1 IIIB gp120 to CD4 (Human immunodeficiency virus type 1 group M subtype B, UniProt P04578); assay: gp120-CD4 binding assay (ELISA); details: 1 hr at room temperature
T1 construct: The recombinant IIB gp120 protein (baculovirus-expressed) was obtained from Intracel; purchased Intracel (Cambridge, Mass.) for gp120; host or cells: baculovirus-expressed (gp120)
Description: To investigate the possible effect of porphyrin compounds on binding of HIV-1 IIIB gp120 to CD4, a gp120 CD4 binding assay was developed. The assay was developed as a modification of a capture gp120 ELISA kit (Intracel Corporation). Briefly, a 96-well plate was coated with soluble CD4 and 0.5 μg of HIV-1 IIIB gp120 per well was incubated in the presence or absence of test compounds for 1 hr at room temperature. After four washes with buffer to remove unbound proteins, the bound gp120 was detected by anti-gp120 peroxidase-conjugated antibodies and quantitated by the protocol provided by the manufacturer.

[2] = molecular target: T2, HIV-1 Env protein (HXB2 Env) (Human immunodeficiency virus type 1 group M subtype B, UniProt P04578); assay type: cell-based
T2 construct: expressed in transfected cells; host or cells: 293T cells transfected with pIIIenv3-1 plus pCMVTAT; cocultured with 3T3 cells expressing CD4 and CXCR4

IIIB Env of HIV 1 = IIIB Env of HIV 1 (Human immunodeficiency virus type 1 group M subtype B, UniProt P03375); assay type: cell-based
HIV-1 IIIB = assay: Screening for virucidal activity against HIV-1 IIIB, MAGI cell assay
89.6 Env = 89.6 Env (Human immunodeficiency virus type 1 group M subtype B, UniProt Q73372); assay type: cell-based, HIV-1
HSV-1(F) or HSV-2(G) = assay: In vitro HSV inactivation, plaque assay on Vero cells; assay type: cell-based, herpes simplex virus; details: room temperature, in the dark, up to 60 minutes
Description: Either HSV-1(F) or HSV-2(G) (10^7 pfu) was mixed with 1 ml of porphyrin at the concentration indicated in Dulbecco's modified Eagle's medium (DME) with 1% newborn calf serum. All assays were performed in duplicate. All tubes were wrapped in foil to keep out light, and ambient room light was reduced as much as was practicable. Virus and porphyrin were incubated together at room temperature for times up to 60 minutes (Table 2). Following incubation, 10 fold serial dilutions were performed in DME with 1% newborn serum, using tubes wrapped in foil. Virus was diluted 20,000 fold and plated on Vero cells. Following a 2 hour incubation with the cells, the inoculum was removed and cells were overlaid with DME with 1% newborn calf serum and 0.2% human gamma globulin. Cells were fixed and stained, and plaques counted, 2 days after infection.

89.6 Env, sequence (Q73372 32-719 limits assumed): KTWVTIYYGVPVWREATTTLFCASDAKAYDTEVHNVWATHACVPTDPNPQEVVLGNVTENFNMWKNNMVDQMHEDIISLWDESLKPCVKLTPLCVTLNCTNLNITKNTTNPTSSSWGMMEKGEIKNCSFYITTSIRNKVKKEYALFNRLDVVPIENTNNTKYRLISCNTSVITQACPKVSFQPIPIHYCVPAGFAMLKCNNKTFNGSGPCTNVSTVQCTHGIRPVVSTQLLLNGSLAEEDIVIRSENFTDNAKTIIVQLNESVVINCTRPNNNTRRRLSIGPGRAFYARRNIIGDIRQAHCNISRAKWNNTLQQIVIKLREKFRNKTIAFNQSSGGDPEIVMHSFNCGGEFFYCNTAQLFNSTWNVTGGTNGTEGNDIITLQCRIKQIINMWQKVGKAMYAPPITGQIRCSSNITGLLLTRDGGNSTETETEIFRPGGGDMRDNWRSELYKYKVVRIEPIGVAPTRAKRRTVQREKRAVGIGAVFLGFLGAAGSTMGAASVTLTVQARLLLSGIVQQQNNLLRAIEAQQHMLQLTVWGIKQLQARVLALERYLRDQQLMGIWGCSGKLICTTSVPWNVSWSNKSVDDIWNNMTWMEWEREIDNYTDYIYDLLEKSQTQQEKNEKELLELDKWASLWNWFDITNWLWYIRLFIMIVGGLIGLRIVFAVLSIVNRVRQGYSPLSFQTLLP
89.6 Env, sequence (Q73372 509-719 partner limits assumed): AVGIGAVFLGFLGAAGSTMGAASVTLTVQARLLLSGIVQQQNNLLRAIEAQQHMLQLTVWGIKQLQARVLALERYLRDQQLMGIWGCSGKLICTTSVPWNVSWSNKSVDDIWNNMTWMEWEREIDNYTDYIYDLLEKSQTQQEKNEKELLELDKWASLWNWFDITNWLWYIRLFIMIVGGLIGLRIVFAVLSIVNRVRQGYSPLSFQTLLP

Compound | HIV-1 89.6 inactivated (HIV-189.6) | SIVmac1A11 inactivated (SIVmac1A11) | CC50 (concentration that reduced the viability of cells by 50%) (MAGI cells) | inhibition of gp120/CD4 binding in words [1] | Presence of nuclei in syncytia, pIIIenv X4, 6 h [2] | inhibition of HIV-induced cell fusion in words [2] | inhibition of HIV-induced cell fusion in words (IIIB Env of HIV 1) | activity at low concentration (HIV-1 IIIB; 0.5 μg/ml, HIV-1 IIIB, MAGI cells) | kinetics of inactivation of HIV-1 IIIB (HIV-1 IIIB; 2 to 60 minutes) | activity against HIV in words (HIV-1 IIIB; MAGI screening assay, HIV-1 IIIB) | infected cells remaining (HIV-1 IIIB; after 2 min incubation) | Presence of nuclei in syncytia, VV89.6 envt R5, 6 h (89.6 Env) | Presence of nuclei in syncytia, VV89.6 envt R5, 23 h (89.6 Env) | Presence of nuclei in syncytia, VV89.6 envt X4, 23 h (89.6 Env) | inactivating HSVs (HSV-1(F) or HSV-2(G)) | selective index CC50/EC50 (HIV-1 IIIB)
sulfonated 5,10,15,20-tetra-naphthalen-1-yl-porphyrin [TNapPS] | 76% | 88% | 75 µg/mL | completely inhibit binding | − | complete inhibition | Complete inhibition | significant activity | inhibited viral growth almost completely | most active | approximately 1% |  |  |  |  | 
O=S(=O)(O)c1ccc(-c2c3nc(c(-c4ccc(S(=O)(=O)O)cc4)c4ccc([nH]4)c(-c4ccc(S(=O)(=O)O)cc4)c4nc(c(-c5ccccc5)c5ccc2[nH]5)C=C4)C=C3)cc1 [TPPS3, meso-tetraphenylporphyrin trisulfonate] |  |  | 50 µg/mL |  | − |  |  |  |  |  |  | −/4+ | −/4+ (key: 4+: more than 50% of nuclei are in syncytia; 3+: 30 to 50% of nuclei are in syncytia; 2+: 30 to 10% of nuclei are in syncytia; +: less than 10% of nuclei are in syncytia; −: no syncytia were observed) | 1+/4+ (key: 4+: more than 50% of nuclei are in syncytia; 3+: 30 to 50% of nuclei are in syncytia; 2+: 30 to 10% of nuclei are in syncytia; +: less than 10% of nuclei are in syncytia; −: no syncytia were observed) | active | 10
